Patent US10323061B2, “Heteroaryl containing bile acid analogs as FXR/TGR5 agonists and methods of use thereof” (ENANTA PHARMACEUTICALS, INC., priority 2016, dated 2019)

Molecular target: T1, human FXR (NR1H4) (Homo sapiens, UniProt Q96RI1)
T1 construct: host or cells: CHO (Chinese hamster ovary) cells
T1 sequence (Q96RI1 1-486): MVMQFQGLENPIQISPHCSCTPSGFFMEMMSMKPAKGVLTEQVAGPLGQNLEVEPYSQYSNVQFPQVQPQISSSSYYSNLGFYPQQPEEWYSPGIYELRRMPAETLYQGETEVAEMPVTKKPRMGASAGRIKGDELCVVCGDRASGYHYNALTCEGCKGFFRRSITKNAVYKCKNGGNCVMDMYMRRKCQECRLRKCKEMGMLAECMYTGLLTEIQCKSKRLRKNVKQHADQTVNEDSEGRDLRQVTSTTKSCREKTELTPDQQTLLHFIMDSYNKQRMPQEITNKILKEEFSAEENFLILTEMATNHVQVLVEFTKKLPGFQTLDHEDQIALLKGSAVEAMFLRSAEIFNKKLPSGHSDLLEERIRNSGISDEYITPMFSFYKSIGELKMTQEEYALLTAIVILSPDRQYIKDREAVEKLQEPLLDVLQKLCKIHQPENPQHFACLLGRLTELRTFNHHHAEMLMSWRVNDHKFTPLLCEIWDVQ
Experiment: Human FXR (NR1H4) Assay (Gal4 promoter driven luciferase reporter, Indigo Bioscience kit IB00601)
Assay type: cell-based
Settings: CHO reporter cells expressing human NR1H4; for EC50: FXR agonistic potency range, 22 hours incubation; for Efficacy (%): normalized to CDCA set as 100%
Source text: Assays Human FXR (NR1H4) Assay Determination of a ligand mediated Gal4 promoter driven transactivation to quantify ligand binding mediated activation of FXR. FXR Reporter Assay kit purchased from Indigo Bioscience (Catalogue number: IB00601) to determine the potency and efficacy of compound developed by Enanta that can induce FXR activation. The principal application of this reporter assay system is to quantify functional activity of human FXR. The assay utilizes non-human mammalian cells, CHO (Chinese hamster ovary) cells engineered to express human NR1H4 protein (referred to as FXR). Reporter cells also incorporate the cDNA encoding beetle luciferase which catalyzes the substrates and yields photon emission. Luminescence intensity of the reaction is quantified using a plate-reading luminometer, Envision. Reporter Cells include the luciferase reporter gene functionally linked to an FXR responsive promoter. Thus, quantifying changes in luciferase expression in the treated reporter cells provides a sensitive surrogate measure of the changes in FXR activity. […] The assay is according to the manufacturer's instructions. In brief, the assay was performed in white, 96 well plates using final volume of 100 ul containing cells with different doses of compounds. Retrieve Reporter Cells from −80° C. storage. Perform a rapid thaw of the frozen cells by transferring a 10 ml volume of 37° C. cell recovery medium into the tube of frozen cells. Recap the tube of Reporter Cells and immediately place it in a 37° C. water bath for 5-10 minutes. Retrieve the tube of Reporter Cell Suspension from the water bath. Sanitize the outside surface of the tube with a 70% alcohol swab, and then transfer it into the cell culture hood. Dispense 90 μl of cell suspension into each well of the 96-well Assay Plate. Transfer the plate into 37° C. incubator, allowing the cells adherent to the bottom of the well. Dilute compounds in Dilution Plate (DP), and administrate to cells at Assay Plate (AP). DMSO content of the samples was kept at 0.2%. Cells were incubated for additional 22 hours before luciferase activities were measured. Thirty minutes before intending to quantify FXR activity, remove Detection Substrate and Detection Buffer from the refrigerator and place them in a low-light area so that they may equilibrate to room temperature. Remove the plate's lid and discard all media contents by ejecting it into an appropriate waste container. Gently tap the inverted plate onto a clean absorbent paper towel to remove residual droplets. Cells will remain tightly adhered to well bottoms. Add 100 μl of luciferase detection reagent to each well of the assay plate. Allow the assay plate to rest at room temperature for at least 5 minutes following the addition of LDR. Set the instrument (Envision) to perform a single 5 second “plate shake” prior to reading the first assay well. Read time may be 0.5 second (500 mSec) per well.

Compound | EC50 | Efficacy (%)
CC[C@H]1[C@@H](O)[C@@H]2[C@H](CC[C@]3(C)[C@@H]([C@H](C)CCc4nnc(C5CC5)[nH]4)CC[C@@H]23)[C@@]2(C)CC[C@@H](O)C[C@@H]12 [Example 13] | 1 to 10 µM | 168%
CC[C@H]1[C@@H](O)[C@@H]2[C@H](CC[C@]3(C)[C@@H]([C@H](C)CCc4nnc(N(C)C)o4)CC[C@@H]23)[C@@]2(C)CC[C@@H](O)C[C@@H]12 [Example 14] | 0.1 to 1 µM | 265%
CC[C@H]1[C@@H](O)[C@@H]2[C@H](CC[C@]3(C)[C@@H]([C@H](C)CCc4nnc(N)o4)CC[C@@H]23)[C@@]2(C)CC[C@@H](O)C[C@@H]12 [Example 9] | 0.1 to 1 µM | 222%
CC[C@H]1[C@@H](O)[C@@H]2[C@H](CC[C@]3(C)[C@@H]([C@H](C)CCc4nnc(C(C)(C)C)s4)CC[C@@H]23)[C@@]2(C)CC[C@@H](O)C[C@@H]12 [Example 17] | 0.1 to 1 µM | 314%
CC[C@H]1[C@@H](O)[C@@H]2[C@H](CC[C@]3(C)[C@@H]([C@H](C)CCc4nnc(C5CCCCC5)s4)CC[C@@H]23)[C@@]2(C)CC[C@@H](O)C[C@@H]12 [Example 18] | 1 to 10 µM | 244%
CC[C@H]1[C@@H](O)[C@@H]2[C@H](CC[C@]3(C)[C@@H]([C@H](C)Cc4nnc(-c5ccc(C(C)(C)C)cc5)o4)CC[C@@H]23)[C@@]2(C)CC[C@@H](O)C[C@@H]12 [Example 20] | 1 to 10 µM | 87%
CC[C@H]1[C@@H](O)[C@@H]2[C@H](CC[C@]3(C)[C@@H]([C@H](C)CCc4nnc(Cc5ccccc5)s4)CC[C@@H]23)[C@@]2(C)CC[C@@H](O)C[C@@H]12 [Example 16] | 0.1 to 1 µM | 378%
CC[C@H]1[C@@H](O)[C@@H]2[C@H](CC[C@]3(C)[C@@H]([C@H](C)CCc4nnc(C5CC5)o4)CC[C@@H]23)[C@@]2(C)CC[C@@H](O)C[C@@H]12 [Example 10] | 0.1 to 1 µM | 304%
CC[C@H]1[C@@H](O)[C@@H]2[C@H](CC[C@]3(C)[C@@H]([C@H](C)CCc4nnc(-c5ccccc5)s4)CC[C@@H]23)[C@@]2(C)CC[C@@H](O)C[C@@H]12 [Example 15] | 0.1 to 1 µM | 362%
CC[C@H]1[C@@H](O)[C@@H]2[C@H](CC[C@]3(C)[C@@H]([C@H](C)CCc4nnc(-c5ccc(C(C)(C)C)cc5)s4)CC[C@@H]23)[C@@]2(C)CC[C@@H](O)C[C@@H]12 [Example 19] | 1 to 10 µM | 172%
CC[C@H]1[C@@H](O)[C@@H]2[C@H](CC[C@]3(C)[C@@H]([C@H](C)Cc4nnc(NS(=O)(=O)N(C)C)[nH]4)CC[C@@H]23)[C@@]2(C)CC[C@@H](O)C[C@@H]12 [Example 8] | 0.1 to 1 µM | 234%
CC[C@H]1[C@@H](O)[C@@H]2[C@H](CC[C@]3(C)[C@@H]([C@H](C)CCc4nc(C5CC5)no4)CC[C@@H]23)[C@@]2(C)CC[C@@H](O)C[C@@H]12 [Example 11] | 1 to 10 µM | 239%
CC[C@H]1[C@@H](O)[C@@H]2[C@H](CC[C@]3(C)[C@@H]([C@H](C)CCc4nnc(C5CC5)s4)CC[C@@H]23)[C@@]2(C)CC[C@@H](O)C[C@@H]12 [Example 12] | 0.1 to 1 µM | 369%
